Here are results for six compounds from ChEMBL document CHEMBL4334492, “Nectriatide, a Potentiator of Amphotericin B Activity from Nectriaceae sp. BF-0114” (J Nat Prod, 2019).

Data set [1] has as its system Candida albicans. Description: Potentiation of amphotericin-induced antifungal activity against Candida albicans ATCC 90029 assessed as fold reduction in amphotericin MIC at 32 ug/ml after 24 hrs by broth microdilution method relative to amphotericin MIC alone. Format: functional. (In general: Broth dilution looks for growth in wells or tubes with falling amounts of substance.)

In data set [2] the test system is Candida albicans. Briefly: Potentiation of amphotericin-induced antifungal activity against Candida albicans ATCC 90029 assessed as amphotericin MIC at 32 ug/ml after 24 hrs by broth microdilution method (reference value: 0.5 ug/ml). It is filed as functional. To be noted: ATCC 90029, 24 h.
In data set [3] the test system is Rhizopus arrhizus. Description: Potentiation of amphotericin-induced antifungal activity against Rhizopus oryzae NBRC4705 assessed as fold reduction in amphotericin MIC at 32 ug/ml after 24 hrs by broth microdilution assay relative to amphotericin MIC alone. Format: functional.
Data set [4] relates to Saccharomyces cerevisiae. Description: Potentiation of amphotericin-induced antifungal activity against Saccharomyces cerevisiae S288c assessed as fold reduction in amphotericin MIC at 2 ug/ml after 24 hrs by broth microdilution assay relative to amphotericin MIC alone. Format: functional.
In data set [5] the test system is HEK293. Briefly: Cytotoxicity against human HEK293 cells at 128 ug/ml after 24 hrs by MTT assay. Format: cell-based. Particulars: hek293, 24 h. (In general: Tetrazolium dyes change colour on reduction, which living cells bring about.)
For data set [6], the system named is Candida albicans. Briefly: Potentiation of amphotericin-induced antifungal activity against Candida albicans ATCC 90029 assessed as fold reduction in amphotericin MIC at 16 ug/ml after 24 hrs by broth microdilution method relative to amphotericin MIC alone. It is filed as functional.
The subject of data set [7] is Rhizopus arrhizus. Briefly: Potentiation of amphotericin-induced antifungal activity against Rhizopus oryzae NBRC4705 assessed as amphotericin MIC at 4 ug/ml after 24 hrs by broth microdilution assay (reference value: 1 ug/ml). It is filed as functional. To be noted: NBRC4705, 24 h.
A further data set has as its system HaCaT. Briefly: Cytotoxicity against human HaCaT cells assessed as reduction in cell viability at 128 ug/ml after 24 hrs by MTT assay. Format: cell-based.
Data set [8] has as its system Saccharomyces cerevisiae. Briefly: Potentiation of amphotericin-induced antifungal activity against Saccharomyces cerevisiae S288c assessed as amphotericin MIC at 16 ug/ml after 24 hrs by broth microdilution assay (reference value: 0.5 ug/ml). Format: functional.
Data set [9] concerns Rhizopus arrhizus. Description: Potentiation of amphotericin-induced antifungal activity against Rhizopus oryzae NBRC4705 assessed as fold reduction in amphotericin MIC at 8 ug/ml after 24 hrs by broth microdilution assay relative to amphotericin MIC alone. It is filed as functional.
For data set [10], the system named is Candida albicans. Briefly: Potentiation of micafungin-induced antifungal activity against Candida albicans ATCC 90029 at 64 ug/ml after 24 hrs by broth microdilution assay. Format: functional, organism-based.
Data set [11] has as its system Rhizopus arrhizus. Briefly: Potentiation of amphotericin-induced antifungal activity against Rhizopus oryzae NBRC4705 assessed as amphotericin MIC after 24 hrs by broth microdilution assay (reference value: 1 ug/ml). Format: functional, organism-based.
For data set [12], the system named is Candida albicans. Briefly: Potentiation of miconazole-induced antifungal activity against Candida albicans ATCC 90029 at 64 ug/ml after 24 hrs by broth microdilution assay. It is filed as functional, organism-based.
The test system of data set [13] is Rhizopus arrhizus. Briefly: Potentiation of amphotericin-induced antifungal activity against Rhizopus oryzae NBRC4705 assessed as amphotericin MIC at 16 ug/ml after 24 hrs by broth microdilution assay (reference value: 1 ug/ml). It is filed as functional. To be noted: NBRC4705, 24 h.
Data set [14] has as its system Saccharomyces cerevisiae. Briefly: Potentiation of amphotericin-induced antifungal activity against Saccharomyces cerevisiae S288c assessed as fold reduction in amphotericin MIC at 32 ug/ml after 24 hrs by broth microdilution assay relative to amphotericin MIC alone. Format: functional.
In data set [15] the test system is Saccharomyces cerevisiae. Description: Potentiation of amphotericin-induced antifungal activity against Saccharomyces cerevisiae S288c assessed as amphotericin MIC at 32 ug/ml after 24 hrs by broth microdilution assay (reference value: 0.5 ug/ml). It is filed as functional.
Data set [16] deals with Rhizopus arrhizus. Description: Potentiation of amphotericin-induced antifungal activity against Rhizopus oryzae NBRC4705 assessed as fold reduction in amphotericin MIC at 4 ug/ml after 24 hrs by broth microdilution assay relative to amphotericin MIC alone. Format: functional.
Data set [17] has as its system Aspergillus niger. Description: Potentiation of amphotericin-induced antifungal activity against Aspergillus niger ATCC 6275 assessed as fold reduction in amphotericin MIC at 32 ug/ml after 48 hrs by broth microdilution method relative to amphotericin MIC alone. It is filed as functional.
In data set [18] the test system is Saccharomyces cerevisiae. Briefly: Potentiation of amphotericin-induced antifungal activity against Saccharomyces cerevisiae S288c assessed as fold reduction in amphotericin MIC at 4 ug/ml after 24 hrs by broth microdilution assay relative to amphotericin MIC alone. It is filed as functional.
Data set [19] has as its system Rhizopus arrhizus. Description: Potentiation of amphotericin-induced antifungal activity against Rhizopus oryzae NBRC4705 assessed as amphotericin MIC at 2 ug/ml after 24 hrs by broth microdilution assay (reference value: 1 ug/ml). Particulars: NBRC4705, 24 h. Format: functional.
For data set [20], the system named is Saccharomyces cerevisiae. Description: Potentiation of amphotericin-induced antifungal activity against Saccharomyces cerevisiae S288c assessed as amphotericin MIC at 2 ug/ml after 24 hrs by broth microdilution assay (reference value: 0.5 ug/ml). It is filed as functional.
Data set [21] deals with Candida albicans. Description: Potentiation of amphotericin-induced antifungal activity against Candida albicans ATCC 90029 assessed as amphotericin MIC at 16 ug/ml after 24 hrs by broth microdilution method (reference value: 0.5 ug/ml). Format: functional. To be noted: ATCC 90029, 24 h.
For data set [22], the system named is Saccharomyces cerevisiae. Briefly: Potentiation of amphotericin-induced antifungal activity against Saccharomyces cerevisiae S288c assessed as amphotericin MIC after 24 hrs by broth microdilution assay (reference value: 0.5 ug/ml). It is filed as functional, organism-based.
A further data set deals with Jurkat. Briefly: Cytotoxicity against human Jurkat cells at 128 ug/ml after 24 hrs by MTT assay. It is filed as cell-based.
The test system of data set [23] is Rhizopus arrhizus. Description: Potentiation of amphotericin-induced antifungal activity against Rhizopus oryzae NBRC4705 assessed as amphotericin MIC at 8 ug/ml after 24 hrs by broth microdilution assay (reference value: 1 ug/ml). Format: functional. Particulars: NBRC4705, 24 h.
The subject of data set [24] is Saccharomyces cerevisiae. Briefly: Potentiation of amphotericin-induced antifungal activity against Saccharomyces cerevisiae S288c assessed as fold reduction in amphotericin MIC at 16 ug/ml after 24 hrs by broth microdilution assay relative to amphotericin MIC alone. Format: functional.
For data set [25], the system named is Saccharomyces cerevisiae. Briefly: Potentiation of amphotericin-induced antifungal activity against Saccharomyces cerevisiae S288c assessed as amphotericin MIC at 4 ug/ml after 24 hrs by broth microdilution assay (reference value: 0.5 ug/ml). Format: functional.
For data set [26], the system named is HEK293. Briefly: Cytotoxicity against human HEK293 cells assessed as reduction in cell viability after 24 hrs by MTT assay. Format: cell-based. Particulars: HEK293, 24 h.
Data set [27] has as its system Rhizopus arrhizus. Briefly: Potentiation of amphotericin-induced antifungal activity against Rhizopus oryzae NBRC4705 assessed as amphotericin MIC at 32 ug/ml after 24 hrs by broth microdilution assay (reference value: 1 ug/ml). It is filed as functional. To be noted: NBRC4705, 24 h.
Data set [28] relates to Aspergillus niger. Description: Potentiation of amphotericin-induced antifungal activity against Aspergillus niger ATCC 6275 assessed as amphotericin MIC at 32 ug/ml after 48 hrs by broth microdilution method (reference value: 0.25 ug/ml). Format: functional. Particulars: ATCC 6275, 48 h.
Data set [29] concerns Saccharomyces cerevisiae. Briefly: Potentiation of amphotericin-induced antifungal activity against Saccharomyces cerevisiae S288c assessed as amphotericin MIC at 8 ug/ml after 24 hrs by broth microdilution assay (reference value: 0.5 ug/ml). Format: functional.
The subject of data set [30] is Rhizopus arrhizus. Briefly: Potentiation of amphotericin-induced antifungal activity against Rhizopus oryzae NBRC4705 assessed as fold reduction in amphotericin MIC at 2 ug/ml after 24 hrs by broth microdilution assay relative to amphotericin MIC alone. It is filed as functional.
Data set [31] has as its system Rhizopus arrhizus. Briefly: Potentiation of amphotericin-induced antifungal activity against Rhizopus oryzae NBRC4705 assessed as fold reduction in amphotericin MIC at 16 ug/ml after 24 hrs by broth microdilution assay relative to amphotericin MIC alone. Format: functional.
Data set [32] deals with Saccharomyces cerevisiae. Briefly: Potentiation of amphotericin-induced antifungal activity against Saccharomyces cerevisiae S288c assessed as fold reduction in amphotericin MIC at 8 ug/ml after 24 hrs by broth microdilution assay relative to amphotericin MIC alone. It is filed as functional.
Another data set deals with HCT-116. Briefly: Cytotoxicity against human HCT116 cells at 128 ug/ml after 24 hrs by MTT assay. To be noted: hct-116, 24 h. Format: cell-based.
For data set [33], the system named is Candida albicans. Description: Potentiation of amphotericin-induced antifungal activity against Candida albicans ATCC 90029 assessed as fold reduction in amphotericin MIC at 8 ug/ml after 24 hrs by broth microdilution method relative to amphotericin MIC alone. Format: functional.
In data set [34] the test system is Candida albicans. Description: Potentiation of amphotericin-induced antifungal activity against Candida albicans ATCC 90029 assessed as amphotericin MIC at 8 ug/ml after 24 hrs by broth microdilution method (reference value: 0.5 ug/ml). Format: functional. To be noted: ATCC 90029, 24 h.

Molecules are shown by their SMILES. Values after ≈ are worked out from the molar mass of the structure shown. Active and inactive are the calls of the source. The calls are words filed in the database; no cut-off is given here. Non-standard residues stand in square brackets, D forms with d. Residues, ends and D or L forms follow the SMILES beside them. *: point of attachment. NMeY = CN[C@@H](Cc1ccc(O)cc1)C(=O)O; 2Abz = Nc1ccccc1C(=O)O; tBu = CC(C)(C)* Where only a bound is given, the exact number is not on record here.

Regarding `C[C@H](NC(=O)c1ccccc1N)C(=O)O`, the Ratio with Candida albicans [1] was found to be 4. For the same compound, the MIC in the data set on Candida albicans [2] worked out at 0.13 µg/mL.
With `CN[C@@H](Cc1ccc(OC(C)(C)C)cc1)C(=O)Nc1ccccc1C(=O)N[C@@H](C)C(=O)O`, the Ratio with Candida albicans [1] is 2. The MIC with Candida albicans [2] stood at 0.25 µg/mL.
For `CN[C@@H](Cc1ccc(OC(C)(C)C)cc1)C(=O)Nc1ccccc1C(=O)O` the same measures were 4 and 0.13 µg/mL.
As for `CC(C)[C@@H]1NC(=O)[C@H](C)NC(=O)c2ccccc2NC(=O)[C@H](Cc2ccc(O)cc2)N(C)C1=O`, the Ratio in the data set with Rhizopus arrhizus [3] stood at 4; with Saccharomyces cerevisiae [4], 4; in the data set on Candida albicans [6], 8; with Rhizopus arrhizus [9], 4; with Candida albicans [1], 16; with Saccharomyces cerevisiae [14] it was 16. Further, the Ratio in the data set on Rhizopus arrhizus [16] is on record as 2; in the data set with Aspergillus niger [17], 1; in the data set on Saccharomyces cerevisiae [18], 4; in the data set on Saccharomyces cerevisiae [24] it was 16; in the data set with Rhizopus arrhizus [30], 2; in the data set on Rhizopus arrhizus [31], 4. In addition, the Ratio in the data set on Saccharomyces cerevisiae [32] worked out at 8; in the data set with Candida albicans [33], 4. Besides, the Activity entry was “Non-Toxic” in the data set with HEK293 [5]; “Non-Toxic” in the data set on HaCaT; “Dose-dependent effect” in the data set on Rhizopus arrhizus [11]; “Dose-dependent effect” with Saccharomyces cerevisiae [22]; “Non-Toxic” in the data set with Jurkat; “Non-Toxic” in the data set with HCT-116. Besides, the MIC in the data set on Rhizopus arrhizus [7] was 0.5 µg/mL; in the data set on Saccharomyces cerevisiae [8] it was 0.031 µg/mL; in the data set with Rhizopus arrhizus [13] it was 0.25 µg/mL; in the data set on Saccharomyces cerevisiae [15] it was 0.031 µg/mL; in the data set on Rhizopus arrhizus [19] it was 0.5 µg/mL; in the data set with Saccharomyces cerevisiae [20] it was 0.13 µg/mL. Moreover, the minimum inhibitory concentration (MIC) in the data set on Candida albicans [21] came to 0.063 µg/mL; in the data set on Rhizopus arrhizus [23], 0.25 µg/mL; with Candida albicans [2], 0.031 µg/mL; with Saccharomyces cerevisiae [25], 0.13 µg/mL; with Rhizopus arrhizus [27], 0.25 µg/mL; with Aspergillus niger [28] it was 0.25 µg/mL. The results for the MIC in the data set with Saccharomyces cerevisiae [29] and with Candida albicans [34] were 0.063 µg/mL and 0.13 µg/mL, respectively. Besides, the result in the data set on Candida albicans [10] and in the data set on Candida albicans [12] was inactive. Also, the IC50 in the data set with HEK293 [26] is more than 128 µg/mL.
In the case of `C[C@@H]1[C@H](O)[C@@H](C)/C=C/C=C/C=C/C=C/C=C/C=C/C=C/[C@H](O[C@@H]2O[C@H](C)[C@@H](O)[C@H](N)[C@@H]2O)C[C@@H]2O[C@](O)(C[C@@H](O)C[C@@H](O)[C@H](O)CC[C@@H](O)C[C@@H](O)CC(=O)O[C@H]1C)C[C@H](O)[C@H]2C(=O)O` [AMPHOTERICIN B], in the data set on HEK293 [26], the IC50 worked out at 15 µg/mL (≈ 16.2 µM).
On to `CC(C)[C@@H]1NC(=O)[C@H](C)NC(=O)c2ccccc2NC(=O)[C@H](Cc2ccc(OC(C)(C)C)cc2)N(C)C1=O` (cyclo([2Abz]AV[NMeY](tBu))), for which the Ratio in the data set with Candida albicans [6] is reported as 8; in the data set with Candida albicans [1], 16; with Candida albicans [33], 4. Further, the figures for the MIC with Candida albicans [21], in the data set on Candida albicans [2] and with Candida albicans [34] were 0.063 µg/mL, 0.031 µg/mL and 0.13 µg/mL, respectively.

A word on the MIC: it is the least concentration at which growth counts as inhibited. A word on the IC50: it is the concentration at which inhibition is half-maximal.
